{"source": "patent US8367583B2", "about": "“Composition and method for controlling pests” (Sumitomo Chemical Company, Limited, priority 2009, dated 2013)", "key": {"[1]": {"test_system": "first-instar larvae of Pseudaletia Separata", "assay": "Test Example 2: treatment of the foot of rice seedlings, control rate against Pseudaletia Separata larvae", "type": "in vivo", "details": "rice seedling foot treated with 5 ml, 3 days after release", "description": "An aqueous solution of the compound I prepared by dissolving the compound I in water was appropriately mixed with a chemical solution of fipronil prepared by diluting Fipronil (Prince Flowable: manufactured by BASF Agro, Ltd.) with water to prepare a mixed chemical solution for test of the compound I and fipronil with a predetermined concentration. The foot of a rice seedling (2 weeks after germination) cultivated in a 90-ml plastic cup using cultivation soil was treated with 5 ml of the mixed chemical solution for test. After 3 days, 30 of first-instar larvae of Pseudaletia Separata were released per plant. After 3 days, the number of surviving larvae was counted and the control rate was calculated using the equation A.\n(§1) For comparison, the test was conducted in the same manner using an aqueous solution for test having a predetermined concentration of the compound I prepared by diluting an aqueous solution of the compound I with water, and a chemical solution for test having a predetermined concentration of fipronil prepared by diluting a chemical solution of fipronil with water, respectively.\n(§2) Control Rate=100×(1−[(Ts/30)/(Cs/30)]) “Equation A” where Ts and Cs denote the number of surviving larvae in the treatment group and the non-treatment group, respectively. When the control rate is less than 0 (Ts>Cs), it is represented by 0."}, "[2]": {"test_system": "first-instar larvae of Nilaparvata lugens", "assay": "Test Example 3: rice seed immersion, control rate against Nilaparvata lugens larvae", "type": "in vivo", "details": "rice seeds immersed 24 hours at 30° C., 7 days after release", "excerpt": "as §2\nAn aqueous solution of the compound I prepared by dissolving the compound I in water was appropriately mixed with a chemical solution of fipronil prepared by diluting fipronil (Prince Flowable: manufactured by BASF Agro, Ltd.) with water to prepare a mixed chemical solution for test of the compound I and fipronil with a predetermined concentration. In 40 ml of the mixed chemical solution for test, 100 of rice seeds were immersed and allowed to stand at 30° C. for 24 hours, and then each of the 15 seeds were sown in cultivation soil filled in a 90-ml plastic cup. Eleven (11) days after the sowing, 30 of first-instar larvae of Nilaparvata lugens were released on seedlings germinated from the rice seeds. After 7 days, the number of the surviving larvae was counted and the control rate was calculated using the equation A in the same manner as in Example 2.\nas §1"}}, "data": [{"smiles": "O=C(O)CCC(=O)NCCc1ccccc1", "note": "[Compound I, 4-oxo-4-[(2-phenylethyl)amino]-butyric acid]", "values": [{"measurement": "Control rate", "setting": "[1]; Compound I 10 ppm singly (Fipronil 0 ppm)", "result": 0, "unit": "%"}, {"measurement": "Control rate", "setting": "[1]; Compound I 30 ppm singly (Fipronil 0 ppm)", "result": 0, "unit": "%"}, {"measurement": "Control rate", "setting": "[1]; Compound I 100 ppm singly (Fipronil 0 ppm)", "result": 0, "unit": "%"}, {"measurement": "Control rate", "setting": "[2]; Compound I 50 ppm singly (Fipronil 0 ppm)", "result": 11, "unit": "%"}, {"measurement": "Control rate", "setting": "[2]; Compound I 200 ppm singly (Fipronil 0 ppm)", "result": 21, "unit": "%"}]}, {"smiles": "N#Cc1nn(-c2c(Cl)cc(C(F)(F)F)cc2Cl)c(N)c1[S+]([O-])C(F)(F)F", "note": "(stereo not drawn) [Fipronil, 5-amino-1-(2,6-dichloro-α,α,α-trifluoro-p-tolyl)-4-trifluoromethylsulfinyl pyrazole-3-carbonitrile, reference compound]", "values": [{"measurement": "Control rate", "setting": "[1]; Fipronil 10 ppm singly (Compound I 0 ppm)", "result": 23, "unit": "%"}, {"measurement": "Control rate", "setting": "[1]; Fipronil 30 ppm singly (Compound I 0 ppm)", "result": 41, "unit": "%"}, {"measurement": "Control rate", "setting": "[1]; Fipronil 100 ppm singly (Compound I 0 ppm)", "result": 68, "unit": "%"}, {"measurement": "Control rate", "setting": "[2]; Fipronil 3.1 ppm singly (Compound I 0 ppm)", "result": 50, "unit": "%"}]}]}
